Source: patent publication EP0414533A1, “Use of iodopropargyl esters of alpha-amino acid derivatives as antimicrobial agents” (ROHM AND HAAS COMPANY, priority 1989, dated 1991)
In brackets after ≈: the same amount, converted by molar mass. Structures can show the parent of a compound that is named as a salt. Where two headings read alike, the source gives them in different places.

Legend:
Botrytis cinerea (BOC) = experiment: In-vitro plant fungicide test; assay type: cell-based; conditions: Botrytis cinerea, 25 ppm; Table IVa; *=Phytotoxic; read-out: % Control at 25 ppm BOC
[1] = tested on: Pseudomonas fluorescens (PSFL); experiment: Minimum inhibitory concentration (MIC), broth two-fold serial dilution test; conditions: Pseudomonas fluorescens, read-out: MIC (G-) PSFL, M9G (minimal salts media with glucose)
Text: (§1) When the test is ready to be done, each vessel in the dilution series, except the first vessel, contains an equal volume of compound free broth. The first vessel contains twice the volume of broth with the starting concentration of test compound. One half of the broth from the first vessel is transferred to the second vessel. After being mixed, one half the resulting volume is removed from the second vessel and transferred to the third vessel. The entire cycle is repeated sufficiently to give a series of concentrations amounting to 500, 250, 125, 63, 31, 16, 8, and 4 ppm (or 100, 50, 25, 12.5, 6.2, 3.1, 1.6, and 0.8), respectively.
(§2) Each vessel is then inoculated with a cell suspension of the appropriate test organism. Bacteria are grown in broth, fungi on agar slants for a time and at a temperature appropriate to the species being tested, and algae are a mixture of green algae and blue-green bacteria grown in a nutrient media. At the end of the growth period, in the case of bacteria, the broth is vortexed to disperse the cells.
(§3) The vessels are then incubated at the appropriate temperature. After the incubation, the vessels are examined for growth/no growth.

[2] = tested on: Cochliobolus sativus (HEL); experiment: In-vitro plant fungicide test; assay type: cell-based; conditions: Bipolaris sorokiniana, 25 ppm; Table IVa; *=Phytotoxic; read-out: % Control at 25 ppm HEL
[3] = tested on: Aureobasidium pullulans (APUL); experiment: Minimum inhibitory concentration (MIC), broth two-fold serial dilution test; assay type: cell-based; conditions: Aureobasidium pullulans
Pythium ultimum (PYU) = experiment: In-vitro plant fungicide test; assay type: cell-based; conditions: Globisporangium ultimum; 25 ppm; Table IVa; read-out: % Control at 25 ppm PYU
[4] = tested on: Staphylococcus aureus (SAUR); experiment: Minimum inhibitory concentration (MIC), broth two-fold serial dilution test; conditions: Staphylococcus aureus, read-out: MIC (G+) SAUR, M9G (minimal salts media with glucose)
Text: as §1, §2, §3

Fusarium roseum (FUS) = experiment: In-vitro plant fungicide test; assay type: cell-based; conditions: Fusarium sambucinum, read-out: % Control at 25 ppm FUS, 25 ppm; Table IVa; *=Phytotoxic
Piricularia oryzae (PIR) = experiment: microbe, parasite or virus in culture; assay type: cell-based; conditions: read-out: % Control at 25 ppm PIR
Aspergillus niger (ANIG) = experiment: Minimum inhibitory concentration (MIC), broth two-fold serial dilution test; assay type: cell-based; conditions: Aspergillus niger
Escherichia coli (ECOL) = experiment: as above; conditions: Escherichia coli, read-out: MIC (G-) ECOL, M9G (minimal salts media with glucose)
Text: as §1, §2, §3

[5] = tested on: Xanthomonas campestris (XAN); experiment: In-vitro plant fungicide test; assay type: cell-based; conditions: Xanthomonas campestris; 25 ppm; Table IVa; read-out: % Control at 25 ppm XAN
Septoria nodorum (SEP) = experiment: In-vitro plant fungicide test; assay type: cell-based; conditions: Parastagonospora nodorum, 25 ppm; Table IVa; read-out: % Control at 25 ppm SEP
[6] = tested on: Phytophthora capsici (PHY); experiment: In-vitro plant fungicide test; assay type: cell-based; conditions: Phytophthora capsici; 25 ppm; Table IVa; read-out: % Control at 25 ppm PHY
Rhizoctonia solani (RHI) = experiment: In-vitro plant fungicide test; assay type: cell-based; conditions: Rhizoctonia solani; 25 ppm; Table IVa; read-out: % Control at 25 ppm RHI
[7] = tested on: Pseudomonas aerugenosa (PSAE); experiment: Minimum inhibitory concentration (MIC), broth two-fold serial dilution test; conditions: Pseudomonas, read-out: MIC (G-) PSAE, M9G (minimal salts media with glucose)
Text: as §1, §2, §3

THREE FUNGI = experiment: MIC test against three fungi in Mycophile Broth, pH 5.0, read after 8 days (Table VII); assay type: cell-based; conditions: 192 h
[8] = Table IIIc, iodopropargyl esters of peptides
[9] = Aspergillus niger, pH 5, read-out: MIC ANIG, Aspergillus niger, serial dilutions from 50 ppm, read after 8 days of incubation
[10] = Aureobasidium pullulans, pH 5, read-out: MIC APUL, Aureobasidium pullulans, serial dilutions from 50 ppm, read after 8 days of incubation
[11] = Gloeophyllum trabeum, pH 5, read-out: MIC GTRA, Gloeophyllum trabeum, serial dilutions from 50 ppm, read after 8 days of incubation

| SMILES | inhibition of growth at 25 ppm (Botrytis cinerea (BOC)) [%] | MIC [1, 8] [µg/mL] | inhibition of growth at 25 ppm [2] [%] | inhibition of growth at 25 ppm (Pythium ultimum (PYU)) [%] | MIC [4, 8] [µg/mL] | inhibition of growth at 25 ppm (Fusarium roseum (FUS)) [%] | inhibition of growth at 25 ppm (Piricularia oryzae (PIR)) [%] | MIC (Escherichia coli (ECOL); [8]) [µg/mL] | inhibition of growth at 25 ppm [5] [%] | inhibition of growth at 25 ppm (Septoria nodorum (SEP)) [%] | inhibition of growth at 25 ppm [6] [%] | inhibition of growth at 25 ppm (Rhizoctonia solani (RHI)) [%] | MIC [7, 8] [µg/mL] | MIC (THREE FUNGI; [9]) [µg/mL] | MIC (THREE FUNGI; [10]) [µg/mL] | MIC (THREE FUNGI; [11]) [µg/mL] | further results |
| --- | --- | --- | --- | --- | --- | --- | --- | --- | --- | --- | --- | --- | --- | --- | --- | --- | --- |
| C[C@H](N)C(=O)N[C@@H](C)C(=O)OCC#CI [Compound 18, L-alanyl-L-alanine iodopropargyl ester trifluoroacetate] | 50 | 100 | 100 | 100 | > 100 | 100 | 100 | 100 | 0 | 100 | 100 | 100 | 100 | 12.5 | 50 | 12.5 | MIC ([3]; read-out: MIC (F) APUL, M9G (minimal salts media with glucose), Table IIIc, iodopropargyl esters of peptides): < 0.8 µg/mL; MIC (Aspergillus niger (ANIG); read-out: MIC (F) ANIG, M9G (minimal salts media with glucose), Table IIIc, iodopropargyl esters of peptides): < 0.8 µg/mL |
| N[C@@H](CSCc1ccccc1)C(=O)OCC#CI [Compound 10, S-benzyl-L-cysteine iodopropargyl ester trifluoroacetate] | 0 |  | 50 | 100 |  | 100 | 100 |  | 0 | 100 | 100 | 100 |  | 6.2 | 12.5 | 6.2 | MIC ([1]; Table IIIa): > 100 µg/mL; MIC ([3]; read-out: MIC (F) APUL, M9G (minimal salts media with glucose), Table IIIa): 6.3 µg/mL; MIC ([4]; Table IIIa): > 100 µg/mL; MIC (Aspergillus niger (ANIG); read-out: MIC (F) ANIG, M9G (minimal salts media with glucose), Table IIIa): 3 µg/mL; MIC (Escherichia coli (ECOL); Table IIIa): > 100 µg/mL; MIC ([7]; Table IIIa): 100 µg/mL |
| C[C@H](NC(=O)OC(C)(C)C)C(=O)N[C@H](C(=O)OCC#CI)[C@@H](C)OCc1ccccc1 [Compound 16, N-t-butoxycarbonyl-L-alanyl-O-benzyl-L-threonine iodopropargyl ester] | 0 | > 100 | 0 | 100 | 6 | 0 | 100 | > 100 | 0 | 100 | 0 | 100 | > 100 |  |  |  | MIC ([3]; M9G (minimal salts media with glucose), Table IIIc, iodopropargyl esters of peptides, read-out: MIC (F) APUL): < 0.8 µg/mL; MIC (Aspergillus niger (ANIG); M9G (minimal salts media with glucose), Table IIIc, iodopropargyl esters of peptides, read-out: MIC (F) ANIG): 13 µg/mL; MIC (THREE FUNGI; Aspergillus niger, serial dilutions from 50 ppm, read after 8 days of incubation, read-out: MIC ANIG): > 50 µg/mL; MIC (THREE FUNGI; Aureobasidium pullulans, serial dilutions from 50 ppm, read after 8 days of incubation, read-out: MIC APUL): > 50 µg/mL; MIC (THREE FUNGI; Gloeophyllum trabeum, serial dilutions from 50 ppm, read after 8 days of incubation, read-out: MIC GTRA): 25 µg/mL (≈ 45.9 µM) |
